According to publication PMC2063630 (The Journal of Cell Biology, 2007):
Read-outs that look alike come from different tables or passages of the source. Values belong to the molecule of their own block, whether it stands above or below them. Square brackets hold non-standard residues; d marks the D form. Ends that are not written are not given here. * marks the point of attachment. Biotin = O=C1N[C@H]2[C@H](CS[C@H]2CCCCC(=O)*)N1; pS = N[C@@H](COP(=O)(O)O)C(=O)O

Tests used:
p38 and JNK isoforms = conditions: high concentrations; ref Kuma et al., 2005; cited from earlier work
[1] = test system: endogenous WNK1 in 293 cells; type: cell-based; conditions: for activation of WNK1 by other stimuli, in words: serum-deprived 16 h, stimulus 30 min
[2] = test system: WNK1 localization in 293 cells; assay: WNK1 localization in 293 cells by confocal and live-cell imaging, FRAP; type: cell-based; conditions: for time to redistribution of GFP-WNK1 to intracellular vesicles / time to reversal after removal (WNK1 diffuse in cytosol): live 293 cells; for time to redistribution of GFP-WNK1 to intracellular vesicles: 0.2 M sorbitol or 0.2 M NaCl; for time to reversal after removal (WNK1 diffuse in cytosol): removal of sorbitol or NaCl; for FRAP: time to redistribution to photobleached area: sorbitol- or NaCl-treated 293 cells
ERK1/2 = assay: ERK activation in 293 cells; type: cell-based
p38 and JNK = assay: p38 / JNK activation in 293 cells; type: cell-based; conditions: 30 min
[3] = test system: endogenous WNK1 in 293 cells; type: cell-based, human; conditions: 0.5 M sorbitol
[4] = test system: SPAK and OSR1 T-loop and S-motif; assay: SPAK/OSR1 T-loop and S-motif phosphorylation; type: cell-based; conditions: sorbitol, HeLa and 293 cells
[5] = test system: endogenous SPAK and OSR1 in 293 cells; assay: SPAK/OSR1 activity in 293 cells; type: cell-based; conditions: sorbitol, CATCHtide (Fig. S1)
[6] = test system: endogenous SPAK and OSR1 in HeLa cells; assay: SPAK/OSR1 activity in HeLa cells; type: cell-based; conditions: 0.5 M sorbitol, 30 min, CATCHtide
[7] = target: OSR1 CCT domain (residues 429–527) (Homo sapiens, UniProt O95747); assay: Surface plasmon resonance; type: binding; conditions: BiaCore, OSR1 CCT domain 6.8–340 nM; vs nonphosphorylated peptide
Chain of OSR1 CCT domain (residues 429–527) (O95747 429-527): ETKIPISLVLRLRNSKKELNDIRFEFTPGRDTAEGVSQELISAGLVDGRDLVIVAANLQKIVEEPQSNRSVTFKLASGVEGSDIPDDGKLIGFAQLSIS

[8] = test system: OSR1[D164A] phosphorylation by WNK1[1–661]; assay: Activity of WNK1[1–661] forms expressed in E. coli; type: biochemical; conditions: mean of duplicate samples
WNK1 Ser382 [9] = assay: WNK1 Ser382 phosphorylation, forms expressed in E. coli; type: biochemical
[10] = test system: OSR1[D164A] phosphorylation by WNK1[1–667]; assay: Activity of GST-WNK1[1–667] forms expressed in 293 cells; type: cell-based
WNK1 Ser382 [11] = assay: WNK1 Ser382 phosphorylation, forms expressed in 293 cells; type: cell-based; conditions: 0.5 M sorbitol, 30 min, phospho-Ser382 antibody
[12] = target: OSR1 CCT domain (residues 429-527) (human, UniProt O95747 429-527); assay: SPR
Chain of OSR1 CCT domain (residues 429-527) (O95747 429-527): as above

[13] = PD184352 2 μM 30 min preincubation, 0.5 M sorbitol 30 min
[14] = U0126, 0.5 M sorbitol, not depicted

Molecule: Cc1ccc(-n2nc(C(C)(C)C)cc2NC(=O)Nc2ccc(OCCN3CCOCC3)c3ccccc23)cc1 [BIRB0796]
inhibition of p38 and JNK isoforms, in words (p38 and JNK isoforms): inhibit all p38 and JNK isoforms

Molecule: OO [H2O2]
activation of WNK1 by other stimuli, in words [1]: failed to induce activation of WNK1

Molecule: [Cl-].[K+] [KCl]
fold increase of WNK1 activity ([1]; 0.5 M KCl, 30 min): threefold

Molecule: [Cl-].[Na+] [NaCl]
time to redistribution of GFP-WNK1 to intracellular vesicles [2]: ≤ 0.5 min
time to reversal after removal (WNK1 diffuse in cytosol) [2]: ≤ 2 min
FRAP: time to redistribution to photobleached area [2]: ≤ 2 min
concentration at which WNK1 activation was detectable ([1]; NaCl, 30 min): 50 mM
concentration for maximal WNK1 activation ([1]; NaCl, 30 min): 0.15 M

Molecule: O=C(NOCC1CC1)c1ccc(F)c(F)c1Nc1ccc(I)cc1Cl [PD184352]
effect on ERK activation by sorbitol (ERK1/2; [13]): abolished ERK activation by sorbitol
effect on WNK1 activation by sorbitol [1, 13]: without affecting WNK1 activation

Molecule: C[S+]([O-])c1ccc(-c2nc(-c3ccncc3)c(-c3ccc(F)cc3)[nH]2)cc1 (centres unmarked) [SB203580]
effect on WNK1 activation by sorbitol [1]: failed to prevent activation of WNK1 by sorbitol

Molecule: CCCCCCCCCCCCCC(=O)O[C@@H]1[C@@H](C)[C@@]2(O)[C@@H](C=C(CO)C[C@]3(O)C(=O)C(C)=C[C@@H]23)[C@@H]2C(C)(C)[C@]12OC(C)=O [TPA]
activation of WNK1 by other stimuli, in words [1]: failed to induce activation of WNK1

Molecule: N#CC(=C(/N)Sc1ccccc1N)/C(C#N)=C(/N)Sc1ccccc1N [U0126]
effect on ERK activation by sorbitol (ERK1/2; [14]): abolished ERK activation by sorbitol
effect on WNK1 activation by sorbitol [1, 14]: without affecting WNK1 activation

Molecule: COc1ccc(C[C@H]2NC[C@H](O)[C@H]2OC(C)=O)cc1 [anisomycin]
p38 and JNK stimulation, in words (p38 and JNK; anisomycin 10 μg/ml): potently stimulates p38 and JNK
activation of WNK1 by anisomycin, in words ([1]; anisomycin 10 μg/ml, 30 min): failed to activate WNK1

Molecule: CCCCNc1cc(C(=O)O)cc(S(N)(=O)=O)c1Oc1ccccc1 [bumetanide]
activation of WNK1 by other stimuli, in words [1]: failed to induce activation of WNK1

Molecule: COC[C@@H]([C@H](O)[C@H](O)C(=O)NCC[C@H](C)c1nc(/C=C/C[C@@H]2O[C@]3(C[C@@H](O)[C@@H]2C)O[C@H]([C@H](C[C@H](O)[C@H](C)[C@H](O)[C@H](C)/C=C(C)/C(C)=C/C=C/C(C)=C\C#N)OC)[C@H](OP(=O)(O)O)C3(C)C)co1)N(C)C [calyculin A]
activation of WNK1 by other stimuli, in words [1]: failed to induce activation of WNK1

Molecule: OC[C@@H](O)[C@@H](O)[C@H](O)[C@@H](O)CO [sorbitol]
WNK1 phosphorylation sites stimulated, in words ([3]; 32P-labelled 293 cells, 20 min): Phosphorylation of two sites, Ser1261 and Ser 2372, was stimulated
WNK1 phosphorylation sites enhanced, in words ([3]; unlabeled 293 cells, LC-MS, 30 min): five residues (Ser15, Ser167, Ser382, Ser1261, and Thr1848) whose phosphorylation was markedly enhanced
p38 and JNK stimulation, in words (p38 and JNK; 0.5 M sorbitol): stimulated the extracellular signal–regulated kinase (ERK) 1/2, p38, and JNK protein kinases
SPAK/OSR1 T-loop and S-motif phosphorylation, in words [4]: markedly stimulated the phosphorylation of endogenously expressed SPAK and OSR1 at both the T-loop and S-motif
fold increase of SPAK/OSR1 activity [5]: approximately fourfold
fold increase of SPAK/OSR1 activity [6]: approximately fivefold
WNK1 localization, in words ([2]; 0.2 M sorbitol, 1 min): WNK1 was strikingly observed on discrete intracellular structures
time to redistribution of GFP-WNK1 to intracellular vesicles [2]: ≤ 0.5 min
time to reversal after removal (WNK1 diffuse in cytosol) [2]: ≤ 2 min
FRAP: time to redistribution to photobleached area [2]: ≤ 2 min
ERK1/2 stimulation, in words (ERK1/2; 0.5 M sorbitol, 30 min): stimulated the extracellular signal–regulated kinase (ERK) 1/2
fold increase of WNK1 activity ([1]; 0.1–1.0 M sorbitol, 30 min, dose-dependent): fivefold
duration of sustained WNK1 activation ([1]; 0.5 M sorbitol): 80 min
time at which WNK1 activation was detected ([1]; 0.5 M sorbitol): ≤ 0.5 min
time to maximal WNK1 activation ([1]; 0.5 M sorbitol): 1 to 2 min
fold increase of WNK1 activity (OSR1 phosphorylation rate) ([1]; 0.5 M sorbitol, 30 min, vs nontreated cells, duplicate samples): approximately threefold

Molecule: AGRRFIVpSPVPESRL (AGRRFIV[pS]PVPESRL; also: biotin label, attachment end not given here) [phosphorylated Ser1261 peptide]
binding to OSR1 CCT domain, in words [7]: bound to OSR1 with a markedly lower affinity

Molecule: IGF-1: IGF-1
activation of WNK1 by other stimuli, in words [1]: failed to induce activation of WNK1

Molecule: TNFα
activation of WNK1 by other stimuli, in words [1]: failed to induce activation of WNK1

Molecule: WNK1[1–661]: wild-type WNK1 fragment expressed in E. coli
specific activity [8]: 5.2 U/mg
Ser382 phosphorylation after MgATP, in words (WNK1 Ser382 [9]; 0.1 mM ATP, 10 mM Mg, 1 h): did not further increase phosphorylation of Ser382
Ser382 phosphorylation, in words (WNK1 Ser382 [9]; expressed in E. coli): heavily phosphorylated at Ser382

Molecule: WNK1[1–667]: N-terminal fragment of WNK1, GST fusion, expressed in 293 cells
specific activity ([10]; isolated from sorbitol-stimulated 293 cells): ~0.13 U/mg
specific activity ([10]; wild-type, isolated from untreated 293 cells): 0.13 U/mg
Ser382 phosphorylation induced by sorbitol, in words (WNK1 Ser382 [11]): Sorbitol markedly increased recognition of WNK1[1–667] by a phospho-Ser382 antibody

Molecule: WNK1[S382A, 1–661]: mutant expressed in E. coli
specific activity [8]: 0.15 U/mg

Molecule: WNK1[S382D, 1–661]: mutant expressed in E. coli
specific activity [8]: 0.26 U/mg

Molecule: WNK1[S382E, 1–661]: mutant expressed in E. coli
specific activity [8]: 0.66 U/mg

Molecule: WNK1[S382E, 1–667]: Ser382 to Glu mutant of GST-WNK1[1–667]
effect of sorbitol on activity of mutant, in words ([10]; 0.5 M sorbitol, 30 min): not enhanced by sorbitol stimulation
basal activity, fold over wild-type WNK1[1–667] from untreated cells ([10]; untreated 293 cells): over eightfold

Molecule: pervanadate
activation of WNK1 by other stimuli, in words [1]: failed to induce activation of WNK1

Kd [12]: ~40 nM
Molecule: Biotin-AGRRFIVSPVPESRL [biotinylated peptide encompassing Ser1261 of WNK1 (biotin-AGRRFIVSPVPESRL)]
